In US10450570B2, “Compositions and methods for controlling vasculature” (YALE UNIVERSITY, priority 2016, dated 2019):
Values belong to the compound of their own block, whether it stands above or below them.

Tests used:
orthotopic Panc02 tumors = experiment: Murine orthotopic pancreatic tumor model, peritumoral lymphatics (LYVE1); assay type: in vivo, mouse; details: oral, 30 mg/kg/day, compared to vehicle controls
Description: The murine pancreatic tumor cell line Panc02 was obtained from Prof. Wiedenmann (Charité University Hospital, Berlin). 1×10^6 tumor cells were injected subcapsularly in the head region of the pancreas of anaesthetized female C57Bl/6 mice (7-9 weeks old, Charles River, France) using a 30-gauge needle. At day 3 after tumor inoculation, tumor-bearing mice were treated daily with SSR (30 mg/kg/day) or vehicle (0.6% methylcellulose) via oral gavage. At day 9, primary tumors were removed, weighted, and tumor volumes (V) were calculated using the formula V=0.52×(a^2×b), where a represents the smallest tumour diameter and b represents the largest tumour diameter. The incidence of tumor invasion into adjacent organs, hemorrhagic ascites, and regional celiac and mesenteric lymph node metastases were recorded, and confirmed by immunohistochemistry on paraffin sections. Paraffin-embedded […] sections were prepared and used for immunohistochemistry using the following antibodies: anti-LYVE1 (Upstate-Cell Signaling Solutions, Bio-connect, Huissen, The Netherlands) and anti-VEGFR3 (eBiosciences). The lymph vessel area in the peritumoral area was analysed using the KS300 software (Zeiss).

zebrafish = experiment: Lymphatic development in zebrafish embryos; assay type: in vivo; details: 0.25 μM, 53 hpf Tg (fli1a:EGFP) embryos, vs DMSO
mouse cornea = experiment: Corneal lymphangiogenesis model; assay type: in vivo; details: FGF2-containing pellets implanted, 1 week
Description: Slow-releasing pellets containing FGF2 were made as previously described (Tang, Z. et al. JoVE, (2011)). Surgery to implant the pellets into the mouse cornea was performed as reported (Cao, R. et al. Nature protocols 6, 817-826, (2011)). Adult Prox1-CreER^T2(KI); HK2^flox/flox and control mice were i.p. injected with tamoxifen (150 μg/g body weight) every the other day (seven injections total) before the cornea surgery. 1 week after the pellet implantation, eyeballs were harvested for cornea dissection and immunostaining with LYVE1 (Angiobio, #11-034) and PECAM1 (BD Pharmigen, #553370) antibodies and then used for imaging (spinning disk confocal microscopy) and quantification analysis (ImageJ).

HUVECs = experiment: Glycolytic flux measurement in HUVECs; assay type: cell-based, human
Myc expression in HDLECs = experiment: Western blot of Myc expression in HDLECs; assay type: cell-based, human
Description: (§1) Human dermal lymphatic endothelial cells (HDLECs, HMVEC-dLyNeo-Der Lym Endo EGM-2MV) and Pooled human umbilical vein endothelial cells (HUVECs) were purchased from Lonza and cultured in EBM2 basal medium with EGM-2 MV BulletKit. Both cell types were tested negative for mycoplasma in Lonza. Culture medium was changed every the other day. Tissue culture plates were coated with 0.1% gelatin (Sigma) for 30 min at 37° C. and washed with Dulbecco's Phosphate-Buffered Saline (Life Technologies) before cell plating. For siRNA-mediated gene knockdown, FGFR1 siRNA (ON-TARGETplus human FGFR1 siRNA, Dharmacon; Hs_FGFR1_6, Qiagen), FGFR3 siRNA (Hs_FGFR3_6, Qiagen), HK2 siRNA (s6562 human HK2 siRNA, Life Technologies), c-Myc siRNA (ON-TARGETplus human Myc siRNA, Dharmacon), AllStar negative control siRNA (Qiagen), and ON-TARGETplus Non-targeting pool (Dharmacon) were transfected by lipofectamine RNAimax reagent (Life Technologies). Human FGF2 was provided by Kaken Pharmaceutical Co, Ltd (Japan) and ordered from Peprotech. Human VEGFC, VEGFD, IGF1, IGF2 and PDGFBB were purchased from Peprotech. To assay the effect of FGFR1 knockdown on glycolytic enzyme expression, HDLECs, transfected with control or FGFR1 siRNA 3 days in advance, were replated and collected for protein analysis 24 hr later when the cell confluency reached ˜80%. […] ImageJ was used for densitometry quantification of western blot bands.

HDLECs [1] = experiment: Glycolytic flux measurement (5-3H-glucose); assay type: cell-based, human
Description: (§2) Glycolysis was measured as previously described. Briefly, subconfluent HDLECs cultured in 12-well plates were incubated with 1 ml/well EBM2 medium (containing appropriate amount of serum and supplement) with 80 μCi/mmol 5-^3H-glucose (Perkin Elmer) for 2-3 hr. Then 0.8 ml/well medium was transferred into glass vials with hanging wells and filter papers soaked with H2O. After incubation in a cell culture incubator for at least 2 days to reach saturation, filter papers were taken out and the amount of evaporated ^3H2O was measured in a scintillation counter. Glucose oxidation, glutamine oxidation and fatty acid oxidation were measured essentially as reported. For measurement of glucose uptake, HDLECs were incubated with 2-[1-^14C]-deoxy-D-glucose (2.5 μCi/ml, Perkin Elmer) for 10 min. before PBS washing (at least 3 times to get rid of all radioactive medium) and then lysis with 500 μL 0.1 N NaOH. 400 μl NaOH cell lysate for each sample was transferred to scintillation vials containing scintillation liquid and measured.

HDLECs [2] = experiment: Three-dimensional bead sprouting assay; assay type: cell-based, human; details: control siRNA HDLEC-coated beads
Description: HDLECs were trypsinized and mixed with collagen-coated Cytodex® microcarrier beads (Sigma) in a ratio of 2500 beads to 1×10^6 cells in warm EGM-2 medium in a 15 ml falcon tube. The mixture was incubated at 37° C. for 4 hr., with shaking every 20 min. to ensure even coating of the beads. After 4 hr., the coated beads were transferred to a 6-well plate in 2 ml of EGM-2 medium per well and incubated at 37° C. overnight. The next day, coated beads were embedded into a fibrinogen gel. For each well of a 24-well plate, 300 μl of 3 mg/mL fibrinogen in PBS was used, along with 100 μg/ml of aprotinin (Sigma) and 1.5 unit/ml of thrombin (Sigma). Approximately 250 coated beads were embedded in each well. The plate was then incubated at 37° C. for one hr. to generate a clot. After the gel solidified, human lung fibroblasts in EGM-2 medium were seeded on top at a concentration of 20,000 cells/well. The medium was changed every other day (full EGM-2 medium with 200 ng/mL of FGF2), and the plates were imaged on day 6 using a spinning disk confocal microscope (Perkin Elmer). ImageJ was used to measure the sprout length for the data analysis.

HDLECs [3] = experiment: Glucose uptake measurement (2-[1-14C]-deoxy-D-glucose); assay type: cell-based, human
Description: as §2

[4] = tested on: Myc binding to the HK2 E-boxes in HDLECs; experiment: ChIP-qPCR of Myc binding to the HK2 gene; assay type: cell-based, human
Description: ChIP assays were performed using SimpleChIP® Plus Enzymatic Chromatin IP Kit (Cell Signaling) according to manufacturer's protocol with some minor modifications. Basically cells cultured on 20-cm dishes were fixed for 10 min by adding 37% formaldehyde solution to the culture medium to a final concentration of 1%. Fixation was quenched with glycine for 5 min at room temperature. Cells were washed twice with ice-cold PBS, scraped into 2 ml PBS, and centrifuged at 5,000 rpm for 10 min. The cell pellets from two 20-cm dishes were combined and lysed in 1 ml lysis buffer. The lysate was then centrifuged at 5,000 rpm for 5 min at 4° C. and the pellet was resuspended in 100 μl nuclease digestion buffer. The DNA was digested with 0.5 μl of Micrococcal Nuclease for 20 min at 37° C. to a length of approximately 150-900 bp (checked by agarose gel electrophoresis). Lysates were centrifuged and the pellet was resuspended in 500 μl ChIP buffer and sonicated for 3×30 s at power level 2 and 40% constancy. […] The amount of precipitated DNA from each sample was quantified by qPCR using primers flanking the Myc binding element in the HK2 gene. The reading was normalized to that of DNA purified from the previously saved cross-linked chromatin (2% input). The reading by DNA from IP using Myc antibody against that from IgG IP indicated the antibody efficiency for ChIP assay. […]

Myc expression in HUVECs = experiment: Western blot of Myc expression in HUVECs; assay type: cell-based, human
Description: as §1

[5] = tested on: HK2 and other glycolytic enzymes in HDLECs; experiment: Western blot of glycolytic enzyme expression in HDLECs; assay type: cell-based, human; details: protein
Description: as §1

[6] = tested on: HK2 and other glycolytic enzymes in HUVECs; experiment: Western blot of glycolytic enzyme expression in HUVECs; assay type: cell-based, human
Description: as §1

HDLECs [7] = experiment: Mass spectrometry of glycolytic metabolites and ATP; assay type: cell-based, human
Description: HDLECs were quenched by a rapid wash with ice-cold PBS and then collected in 150 μl of an ice-cold solution containing 20% methanol, 0.1% formic acid, 1 mM phenylalanine, 3 mM NaF and 100 μM EDTA. ^2H4-Taurine (10 μM, CDN Isotopes) was used as a loading control. All the samples were lyophilized and resuspended in 50 μL of water prior the LC-MS/MS analysis. Samples were injected onto a Cogent Diamond Hydride™ column (2.2 μm particle size, 2.1 mm×10 cm) at a flow rate of 0.5 mL/min. Glycolytic intermediates were eluted isocratically with a 95% aqueous/5% organic solvent mixture. The aqueous solution contained 15 mM ammonium formate. The organic solution contained 60% acetonitrile, 35% isopropyl alcohol and 15 mM ammonium formate. Samples were ionized by electrospray into an ABSCIEX 5500 QTRAP equipped with a SelexION for differential mobility separation (DMS) and acquired using multiple reaction monitoring (MRM) in negative mode, as described previously. DMS-based separation of fructose-6-phosphate from glucose-6-phosphate, as well as the separation of ATP, ADP and AMP nucleotides, was achieved using no modifier. Isopropyl alcohol was used as modifier for the DMS-based separation of the remaining glycolytic intermediates. […]

Compound: COc1c(C)c(C(=O)c2ccc(N)c(C(=O)[O-])c2)n2ccccc12.[Na+] [SSR128129E]
lymphatic vasculature in the peri-tumoral area (LYVE1) (orthotopic Panc02 tumors): significant reduction of the lymphatic vasculature in the peri-tumoral area

Compound: Cc1c[nH]c(/C=C2\C(=O)Nc3ccccc32)c1CCC(=O)O [SU5402]
lymphatic development in zebrafish (parachordal line length) (zebrafish): impairs lymphatic development in zebrafish

amount of Myc binding to the HK2 E-boxes [4]: increased by FGF2 treatment
Compound: FGF2: Human FGF2 provided by Kaken Pharmaceutical and ordered from Peprotech
lymphangiogenesis in the mouse cornea (mouse cornea): induced robust stimulation of lymphangiogenesis
glycolysis in HUVECs (HUVECs): enhanced glycolysis
Myc protein expression (Myc expression in HDLECs): increased Myc protein expression
glycolytic flux (HDLECs [1]): doubled
sprouting response (HDLECs [2]): induced a strong sprouting response
glucose uptake (HDLECs [3]): significantly increased glucose uptake
Myc expression in HUVECs (Myc expression in HUVECs): increased Myc expression
glycolytic enzyme (HK2) expression [5]: robust increase in HK2 expression, with minimal changes of other enzymes' expression
HK2 protein expression in HUVECs [6]: selectively induced HK2 expression albeit to a lesser extent than in LECs
ATP production (HDLECs [7]): increased
steady-state levels of glycolytic metabolites and lactate (HDLECs [7]): all increased by FGF2 stimulation

Compound: IGF1: insulin-like growth factor 1, purchased from Peprotech
glycolytic flux (HDLECs [1]): no effect

Compound: IGF2: insulin-like growth factor 2, purchased from Peprotech
glycolytic flux (HDLECs [1]): reduced flux
